Measured values as given in patent US20070287848A1, “Silicon Compound Containi-Electron Conjugated-System Molecule and Process for Producing the Same” (priority 2004, published 2007).

How the values were obtained:
[1] = Solubility in toluene; assay type: physicochemical; conditions: in 1 ml of toluene; for solubility relative to that of Th4-SiCl3: ratio to Th4-SiCl3
[2] = Solubility in THF; assay type: physicochemical; conditions: in 1 ml of THF

## CCCCCCCCCCCCCCCCCCc1ccc(-c2ccc(-c3ccc(-c4ccc([Si](OC)(OC)OC)s4)s3)s2)s1 [C18-Th4-Si(OCH3)3]
[1]
  solubility relative to that of Th4-SiCl3: about 9.5 times

## CCCCCCCCCCCCCCCCCCc1ccc(-c2ccc(-c3ccc(-c4ccc([Si](OCC)(OCC)OCC)s4)s3)s2)s1 [C18-Th4-Si(OC2H5)3]
[1]
  solubility relative to that of Th4-SiCl3: about 10 times

## Cl[Si](Cl)(Cl)c1ccc(-c2ccc(-c3ccccc3)cc2)cc1 [P3-SiCl3, reference compound]
[2]
  solubility: about 2.0 mg/ml

## CCCCCCCCCCCCCCCCCCc1ccc(-c2ccc(-c3ccc([Si](Cl)(Cl)Cl)cc3)cc2)cc1 [C18-P3-SiCl3]
[2]; ratio to P3-SiCl3
  solubility relative to that of P3-SiCl3: about 2.8 times

## Cl[Si](Cl)(Cl)c1ccc(-c2ccc(-c3ccc(-c4cccs4)s3)s2)s1 [Th4-SiCl3, reference compound]
[1]
  solubility: about 1.0 mg/ml
